Test results published in patent US20250188088A1, “COMPOUND AND USE THEREOF” (ONQUALITY PHARMACEUTICALS CHINA LTD., priority 2022, published 2025).

Key:
[1] = Plasma stability, human plasma; assay type: in vitro ADME, Humans; settings: 37° C.
Protocol: (§1) In addition, the plasma stability of these compounds was determined. Briefly, the determination method comprises the following steps: • 1) Thaw the frozen mixed plasma in a 37° C. water bath before testing, and then centrifuge at 4000 rpm for 5 min to remove blood clots; • 2) Add 98 μL blank plasma into each well of the 96-well reaction plate; • 3) In addition to the blank samples, add 2 μL of 100 μM working solution of test compound into each well; • 3) Incubate the reaction plate at 37° C. and start timing. Incubation times were 0, 10, 30, 60 and 120 minutes, respectively, with two replicate wells at each time point; • 4) Terminate the incubation at the corresponding time point, and add 400 μL of acetonitrile solution containing 200 ng/mL tolbutamide and 200 ng/mL labetalol to precipitate proteins; • 5) Shake each plate for 20 minutes, then centrifuge at 4000 rpm for 20 minutes, transfer 50 μL of supernatant to another 96-well plate, and dilute each sample with 100 μL of pure water; • 6) Analyze the sample by LC-MS/MS.
The experiment results are as follows, and it can be seen from the test results that the selected compounds are easily metabolized to the target compound in human plasma.

[2] = Plasma stability, mini pig plasma; assay type: in vitro ADME, Mini Pigs; settings: 37° C.
Protocol: as §1

[3] = test system: rash caused by small molecule EGFR inhibitors; assay: Prevention of rash caused by small molecule EGFR inhibitors, topical ointment, rat model; assay type: in vivo, SD rats
From the text: An Experiment to Verify the Prevention of Rash Caused by Small Molecule EGFR Inhibitors with Topical Administration of Compounds of the Present Application on a Rat Animal Model A rat animal model was established. After daily gavage of a small molecule EGFR inhibitor to female SD rats for […], the rats developed extensive rashes on their backs several days later (picture shown in FIG. 1). […] Similar to humans, rats developed skin rashes on their faces and bodies after oral administration of small molecule EGFR inhibitors. Both of them had the same etiology and very similar symptoms. Therefore, rats are a proper animal model for mimicking EGFR inhibitor-induced rash. After the SD rats were fed and adapted for one week (about 200 g), the rats were divided into 10 rats per group. The hair on the back of rats was gently removed with an electric razor one day before the experiment, and then an intragastric administration test was carried out. EGFR inhibitors were dissolved in a sterile aqueous solution, and diluted with PBS buffer; the amount of each gavage was not more than 2 mL, and the dosage was shown in Table 1. The experiment comprised the administration group and the control group. After intragastric administration, apply the ointment (type and concentration are shown in Table 1) of the compound used in the present application to the backs (about 3 cm*3 cm) of rats in the administration group; apply blank matrix ointment (about 0.5 g) to the backs (about 3 cm*3 cm) of rats in the control group; fix the rats with a fixed cylinder for about 4 hours after drug application, release the rats after 4 hours, wipe off the residual drug at the application site with clean water, and put them back into the cage. The frequency of intragastric administration of EGFR inhibitors is shown in Table 1, but the compounds of the present application and blank matrix ointment are applied only once a day. The intragastric administration and application test were repeated daily until an obvious rash appeared in the control group. […] Table 1 lists the animal experiment combination of various small molecule EGFR inhibitors and the compound ointment of the present application, as well as the corresponding experiment results (wherein, the value in the control rate column=the number of rats whose rash is milder in the administration group than that in the control group/the total number of rats in the administration group×100%).

[4] = test system: rash caused by monoclonal EGFR inhibitors; assay: Treatment of rash caused by monoclonal EGFR inhibitors, topical ointment, rat model; assay type: in vivo; settings: SD rats
Protocol: An Experiment to Verify the Treatment of Rash Caused by Monoclonal EGFR Inhibitors with Topical Administration of Compounds of the Present Application on a Rat Animal Model After the SD rats were fed and adapted for one week (about 200 g), the rats were divided into 10 rats per group. The hair on the back of rats was gently removed with an electric razor one day before the experiment, and then an administration test was carried out. The EGFR monoclonal antibody solution diluted with normal saline was injected via tail vein twice a week, and the injection rate and time were shown in Table 4; the treatment experiment was started at the time point when rats developed a rash after continuous administration for 1-2 weeks. The experiments were divided into the administration group with the compound of the present application and the control group. During the treatment experiment, monoclonal antibody EGFR inhibitors were injected twice a week. the administration group applied the compound ointment of the present application on the back (about 3 cm*3 cm) of rats every day, and the control group applied blank matrix ointment on the back (about 3 cm*3 cm); after application, the rats were fixed with a fixed cyclinder for about 4 hours, and then the rats were released, with the residual drug at the application site wiped off with clean water, and put back into the cage. […] Table 4 lists the animal experiment combinations of monoclonal antibody EGFR inhibitors and the compound ointment of the present application, as well as the corresponding experiment results (wherein, the value in the control rate column=the number of rats whose rash is milder in the administration group than that in the control group/the total number of rats in the administration group×100%).

[5] = BPI-7711 60 mg/kg once a day, ointment 5.0 wt% (A14: printed '^ 5%%') once a day, 12 days
[6] = Panitumumab 6 mg/kg twice a week via tail vein, ointment 0.1 wt%, 8 days of drug application

CC(=O)OCCN(C)C(=O)n1ccc2c(N(C)[C@H]3CN(C(=O)CC#N)CC[C@H]3C)ncnc21 [Compound A13]
half-life at 2 µM [1]: 32.5 min | % Retained ([1]; 0 min): 100.0% | % Retained ([1]; 10 min): 77.1% | % Retained ([1]; 30 min): 48.2% | % Retained ([1]; 60 min): 28.1% | % Retained ([1]; 120 min): 7.4% | half-life at 2 µM [2]: > 289 min | % Retained ([2]; 0 min): 100.0% | % Retained ([2]; 10 min): 85.3% | % Retained ([2]; 30 min): 91.0% | % Retained ([2]; 60 min): 91.0% | % Retained ([2]; 120 min): 77.6%

C[C@@H]1CCN(C(=O)CC#N)C[C@@H]1N(C)c1ncnc2c1ccn2C(=O)N(C)CCOC(=O)c1ccccc1 [Compound A14]
Control Rate [3, 5]: 70% | Control Rate ([3]; Dacomitinib 10 mg/kg once a day, ointment 1.0 wt% once a day, 12 days): 50% | Control Rate ([3]; Dacomitinib 10 mg/kg once a day, ointment 5.0 wt% once a day, 12 days): 65% | Control Rate ([3]; Osimertinib 60 mg/kg twice a day, ointment 0.3 wt% once a day, 10 days): 30% | Control Rate ([3]; Osimertinib 60 mg/kg twice a day, ointment 10.0 wt% once a day, 10 days): 80% | Control Rate ([3]; Zorifertinib 60 mg/kg once a day, ointment concentration printed '^ 3%%' (wt %) once a day, 14 days): 50% | Control Rate ([4]; Cetuximab 102 mg/kg twice a week via tail vein, ointment 1.0 wt%, 10 days of drug application): 20% | Control Rate ([4]; Cetuximab 102 mg/kg twice a week via tail vein, ointment 5.0 wt%, 10 days of drug application): 60% | Control Rate [4, 6]: 40% | Control Rate ([4]; Panitumumab 6 mg/kg twice a week via tail vein, ointment 3.0 wt%, 8 days of drug application): 70%

C[C@@H]1CCN(C(=O)CC#N)C[C@@H]1N(C)c1ncnc2c1ccn2C(=O)N(C)CCOC(=O)c1ccncc1 [Compound A15]
half-life at 2 µM [1]: 4.8 min | % Retained ([1]; 0 min): 100.0% | % Retained ([1]; 10 min): 20.6% | % Retained ([1]; 30 min): 0.9% | % Retained ([1]; 60 min): 0.0% | % Retained ([1]; 120 min): 0.0% | half-life at 2 µM [2]: 71.5 min | % Retained ([2]; 0 min): 100.0% | % Retained ([2]; 10 min): 88.3% | % Retained ([2]; 30 min): 75.9% | % Retained ([2]; 60 min): 57.6% | % Retained ([2]; 120 min): 30.8%

C[C@@H]1CCN(C(=O)CC#N)C[C@@H]1N(C)c1ncnc2c1ccn2C(=O)N(C)CCOC(=O)C1CCN(C)CC1 [Compound A17]
half-life at 2 µM [1]: 25 min | % Retained ([1]; 0 min): 100.0% | % Retained ([1]; 10 min): 83.4% | % Retained ([1]; 30 min): 50.7% | % Retained ([1]; 60 min): 20.4% | % Retained ([1]; 120 min): 3.8% | half-life at 2 µM [2]: 66.8 min | % Retained ([2]; 0 min): 100.0% | % Retained ([2]; 10 min): 100.9% | % Retained ([2]; 30 min): 76.0% | % Retained ([2]; 60 min): 52.2% | % Retained ([2]; 120 min): 30.7%

CC(C)C(=O)OCCN(C)C(=O)n1ccc2c(N(C)[C@H]3CN(C(=O)CC#N)CC[C@H]3C)ncnc21 [Compound A19]
half-life at 2 µM [1]: 2.6 min | % Retained ([1]; 0 min): 100.0% | % Retained ([1]; 10 min): 5.1% | % Retained ([1]; 30 min): 0.0% | % Retained ([1]; 60 min): 0.0% | % Retained ([1]; 120 min): 0.0% | half-life at 2 µM [2]: 24.3 min | % Retained ([2]; 0 min): 100.0% | % Retained ([2]; 10 min): 73.0% | % Retained ([2]; 30 min): 46.2% | % Retained ([2]; 60 min): 18.5% | % Retained ([2]; 120 min): 3.3%

C[C@@H]1CCN(C(=O)CC#N)C[C@@H]1N(C)c1ncnc2c1ccn2C(=O)N(C)CCOC(=O)C(C)(C)C [Compound A23]
half-life at 2 µM [1]: 20.8 min | % Retained ([1]; 0 min): 100.0% | % Retained ([1]; 10 min): 60.2% | % Retained ([1]; 30 min): 40.1% | % Retained ([1]; 60 min): 18.5% | % Retained ([1]; 120 min): 1.6% | half-life at 2 µM [2]: 41.1 min | % Retained ([2]; 0 min): 100.0% | % Retained ([2]; 10 min): 75.1% | % Retained ([2]; 30 min): 51.3% | % Retained ([2]; 60 min): 39.2% | % Retained ([2]; 120 min): 12.0%

CN(CCOC(=O)C1CCCCC1)C(=O)n1ccc2c(-c3cnn([C@@H](CC#N)C4CCCC4)c3)ncnc21 [Compound A39]
Control Rate [3, 5]: 90% | Control Rate ([3]; EAI045 80 mg/kg once a day, ointment 1.0 wt% once a day, 11 days): 20% | Control Rate ([3]; EAI045 80 mg/kg once a day, ointment 5.0 wt% once a day, 11 days): 65% | Control Rate ([3]; Osimertinib 60 mg/kg twice a day, ointment 0.1 wt% once a day, 10 days): 10% | Control Rate ([3]; Osimertinib 60 mg/kg twice a day, ointment 3.0 wt% once a day, 10 days): 30% | Control Rate ([3]; Zorifertinib 60 mg/kg once a day, ointment 5.0 wt% once a day, 14 days): 40% | Control Rate ([4]; Cetuximab 100 mg/kg twice a week via tail vein, ointment 0.1 wt%, 10 days of drug application): 20% | Control Rate ([4]; Cetuximab 100 mg/kg twice a week via tail vein, ointment 1.0 wt%, 10 days of drug application): 40% | Control Rate ([4]; Cetuximab 100 mg/kg twice a week via tail vein, ointment 5.0 wt%, 10 days of drug application): 80% | Control Rate ([4]; Cetuximab 100 mg/kg twice a week via tail vein, ointment 10.0 wt%, 10 days of drug application): 100% | Control Rate [4, 6]: 20% | Control Rate ([4]; Panitumumab 6 mg/kg twice a week via tail vein, ointment 1.0 wt%, 8 days of drug application): 30% | Control Rate ([4]; Panitumumab 6 mg/kg twice a week via tail vein, ointment 5.0 wt%, 8 days of drug application): 60% | Control Rate ([4]; Panitumumab 6 mg/kg twice a week via tail vein, ointment 10.0 wt%, 8 days of drug application): 70%
